≈ marks a conversion by molar mass, not a printed value.

The subject of test [1] is Intracranial U87MG Human Gliomas. In words: Survival, intracranial glioma, intratumoral Ad and systemic 5-FC. It is filed as in vivo, SCID mice. To be noted: for Survival 20% / Survival Median: Saline (no virus) + 5-FC. Here is the method: (§1) U87MG and D54MG cells (5×10^5) were stereotactically injected into the right frontal cortex of SCID mice. Tumors were established for 5 days before intratumoral injection of AdCMVCD (10^8 or 10^9 pfu/mouse). Mice were then treated IP with 5-FC (500 mg/kg bid) on days 2-9 post infection and monitored for survival. Kaplan-Meier survival curves and median and 20% survival values were calculated by standard methods.
U87MG cells (5×10^5), the stringent glioma model, were stereotactically injected into the right frontal cortex of SCID mice. Tumors were established for 5 days before intratumoral injection of AdE1ACD or AdCMVCD (10^8 or 10^9 pfu/mouse). Mice were then treated IP with 5-FC (500 mg/kg bid) on days 2-9 post infection and monitored for survival. Kaplan-Meier survival curves and median and 20% survival values were calculated by standard methods.

For test [2], the system named is Intracranial D54MG Human Gliomas. The description is as above. It is filed as in vivo, SCID mice. The conditions noted are these: Table 7; Saline (no virus) + 5-FC. Here is the method: as §1
Test [3] has as its system Intracranial U87MG gliomas. Description: Survival, intracranial glioma, HSV and 5-FC. It is filed as in vivo, SCID mice. The conditions noted are these: saline plus 5-FC. Here is the method:
(§2) Two days later, mice were begun on twice daily intraperitoneal injections of saline (1 ml) or 5-FC (500 mg/kg). Mice were followed for survival.
(§3) Studies were undertaken to determine the efficacy of the HSV construct, M012, in in vivo murine glioma models. […] The median survival of animals receiving saline plus 5-FC was 34 days. In a similar study with the D54MG intracranial model, median survival of mice injected intratumorally with M012 and administered 5-FC was 40 days, compared to 27 days with M012 plus saline and 19 days with saline and 5-FC (FIG. 14).

The subject of test [4] is Intracranial D54MG gliomas. In words: Survival, intracranial glioma, HSV and 5-FC. The conditions noted are these: saline and 5-FC. It is filed as in vivo, athymic nude mice. As for the experimental part:
as §2, §3

The next test deals with Panc2.03 xenografts. In words: Subcutaneous human pancreatic tumor xenograft, tumor growth. It is filed as in vivo, athymic nude mice. The conditions noted are these: PBS plus 5-FC. Here is the method: Animals were injected i.t. with 1×10^7 TCID50 of AdbCD-D314A or 1×10^8 TCID50 of AdbCDwt on Days 0, 7, and 14. 5-FC was administered i.p. at 400 mg/kg qd×5/week for 3 weeks starting on Day 1. Data points represent the mean change in tumor surface area relative to Day 0 for each group of animals.
To compare anti-tumor effects of AdbCD-D314A and AdbCDwt mediated molecular chemotherapy on established solid tumors, 7×10^6 Panc2.03 pancreatic cancer cells were injected s.c. into female athymic nude mice. Treatment was started 11 days post-tumor cell injection at the time of established tumor growth (tumors were 6-8 mm in diameter), noted as Day 0. Animals were randomly divided into groups receiving different treatments: 1) AdbCDwt plus 5-FC; 2) AdbCD-D314A plus 5-FC; 3) AdbCD-D314A plus PBS; 4) PBS plus 5-FC. Mice were injected i.t. with 1×10^8 TCID50 per tumor AdbCDwt or with 1×10^7 TCID50 AdbCD-D314A on Days 0, 7, and 14. Three groups of mice (# 1, 2 and 4) received 5-FC i.p. at 400 mg/kg on Days 1 to 5, 8 to 12, and 15 to 19.
A general note: A xenograft is tissue or cells of one species grown in another, often human tumour cells in immunodeficient mice.

For test [5], the system named is human cell lines derived from gliomas, prostate, colon, and pancreatic carcinomas. In words: 5-FU toxicity, panel of cell lines. It is filed as cell-based. To be noted: range over 12 cell lines. As for the experimental part: Tumor cells (5×10^4) were plated in 96 well plates and allowed to adhere overnight. Cells were then incubated continuously in the presence of increasing concentrations of 5-FU (0-200 μg/ml) and assayed for toxicity using an MTS assay (Promega, Madison Wis.) after 5-days. ICx values were calculated as previously described. U251MG glioma cells were as sensitive to 5-FU as LS174T and WiDR colon carcinoma cells, while D54MG, U87MG and U118MG glioma cells and AsPC-1 pancreatic carcinoma cells were 3-fold less sensitive (Table 2).

The test system of test [6] is D54MG. In words: 5-FC or 5-FU toxicity (MTS) in Ad-infected cells. It is filed as cell-based. The conditions noted are these: Homo sapiens, Table 14, MOI 0. Here is the method: (§4) Next, cytosine deaminase was administered to glioma cells via the replication deficient adenovirus. Glioma cells plated in T25 flasks were infected with AdCMVCD at several multiplicities of infection (MOI 0-300 pfu/cell) for 1 h at 37° C. At twenty-four hours post-infection, cells were harvested, replated at 5×10^3 cells/well in 96 well plates, and allowed to adhere overnight. […]
(§5) To test this hypothesis, 5-FC toxicity (IC50) was compared in cells infected with AdCMVCD versus AdCDUPRT. […] In Table 13 mean 5-FC IC50 was obtained from 2-5 separate experiments. Cells were infected with AdCMVCD or AdCDUPRT at the indicated MOI (pfu/cell) for 1 h at 37° C. 5-FC toxicity was determined by MTS assay 5 days after drug addition.

Test [7] concerns U251MG. Description: 5-FC or 5-FU toxicity (MTS) in Ad-infected cells. It is filed as cell-based. The conditions noted are these: Homo sapiens, U-251, Table 14, MOI 0. Here is the method:
as §4, §5

The subject of test [8] is U87MG. In words: 5-FC or 5-FU toxicity (MTS) in Ad-infected cells. To be noted: Homo sapiens, U-87 MG, Table 14, MOI 0. It is filed as cell-based. As for the experimental part:
as §4, §5

The test system of the next test is BXPC-3. In words: Crystal violet cytotoxicity assay (5-FU, or 5-FC after Ad infection). It is filed as cell-based. The conditions noted are these: Homo sapiens, 120 h, 5 days. An excerpt:
(§6) Twenty-four hours later cells were infected with AdbCD-D314A or AdbCDwt at various MOI.

For test [9], the system named is D54MG. The test is described as above. It is filed as cell-based. The conditions noted are these: Homo sapiens, 120 h, 5 days.
Excerpt: as §6

In the next test the test system is MIA PaCa-2. The test is described as above. To be noted: Homo sapiens, 120 h, 5 days. It is filed as cell-based.
Excerpt: as §6

The next test concerns PANC-1. The test is described as above. It is filed as cell-based. The conditions noted are these: Homo sapiens, 120 h, 5 days.
Excerpt: as §6

Another test has as its system Panc2.03. The description is as above. It is filed as cell-based. To be noted: Homo sapiens, Panc203, 120 h, 5 days.
Excerpt: as §6

The next test concerns S2-013. Described as above. It is filed as cell-based. The conditions noted are these: Homo sapiens, 120 h, 5 days.
Excerpt: as §6

The subject of the next test is S2-VP10. The test is described as above. The conditions noted are these: Homo sapiens, 120 h, 5 days. It is filed as cell-based.
Excerpt: as §6

For test [10], the system named is U251MG. Described as above. The conditions noted are these: Homo sapiens, U-251, 120 h, 5 days. It is filed as cell-based.
Excerpt: as §6

In test [11] the test system is U87MG. The test is described as above. It is filed as cell-based. To be noted: Homo sapiens, U-87 MG, 120 h, 5 days.
Excerpt: as §6

For `Nc1nc(=O)[nH]cc1F` [5-FC, 5-fluorocytosine], the “Survival 20%” value in [1] (Table 6) is recorded as 61; in test [1] (Table 8), 34; in [1] (Table 11), 60; in [2] it was 30. Also, the “Survival Median” value in [1] (Table 6) is 50; in test [1] (Table 8), 34; in test [1] (Table 11), 57; in [2], 29. In addition, the median survival in test [1] (U87MG, no virus/5-FC) was found to be 57 days; in test [3], 34 days; in [4] it was 19 days. In the test on Panc2.03 xenografts, the “mean time to tumor doubling” value stood at 22 days.
The term IC50 denotes the concentration that inhibits the measured activity by half. A lower IC50 goes with greater potency in that assay. As to `O=c1[nH]cc(F)c(=O)[nH]1` [5-FU, 5-fluorouracil], the IC50 is 0.04 to 4.97 µg/mL (≈ 0.308 to 38.2 µM) in test [5]; 1.3 µg/mL (≈ 9.99 µM) in the test on D54MG [6]; 0.4 µg/mL (≈ 3.08 µM) in the test with U251MG [7]; 1.8 µg/mL (≈ 13.8 µM) with U87MG [8]; 0.1 µg/mL (≈ 0.769 µM) in the test on BXPC-3; 3.9 ± 0.8 µg/mL (≈ 30 µM) in the test with D54MG [9]. Also, the IC50 came to 1.4 µg/mL (≈ 10.8 µM) in the test with MIA PaCa-2; 1.5 ± 0.5 µg/mL (≈ 11.5 µM) in the test with PANC-1; 12.4 µg/mL (≈ 95.3 µM) in the test on Panc2.03; 0.5 ± 0.1 µg/mL (≈ 3.84 µM) in the test on S2-013; 2.7 ± 0.1 µg/mL (≈ 20.8 µM) with S2-VP10; 2.5 ± 1.2 µg/mL (≈ 19.2 µM) in the test with U251MG [10]. The compound further returned an IC50 with U87MG [11] of 0.9 ± 0.5 µg/mL (≈ 6.92 µM).
